Laboratory results from patent US9302993B2, “8-hydroxy quinoline derivatives” (PRANA BIOTECHNOLOGY LIMITED, priority 2002, dated 2016).
Values joined by “and” are separate entries in the source; they are usually repeats but may differ in a detail not shown here. Equal entries are not always repeated. Where two headings read alike, the source gives them in different places.

Assays:
[1] = molecular target: T1, hydrogen peroxide generation by Aβ in the presence of copper (Homo sapiens, UniProt P05067); assay: Fluorometric H2O2 assay (Assay 1); assay type: biochemical; conditions: Aβ 1-42 with Cu-Gly, DCF/HRP, 37 C 60 min; several values in one cell = repeat determinations; read-out: Peroxide IC50
T1 construct: The reaction solutions contained Aβ 1-42 at concentrations in the range of 50 nM to 1 μM
Experimental: Assay 1. Fluorometric H2O2 Assay
A fluorometric assay was used to test the ability of a test compound to inhibit hydrogen peroxide generation by Aβ in the presence of copper based on dichlorofluoroscein diacetate (DCF; Molecular Probes, Eugene Oreg.). The DCF solution (5 mM) in 100% dimethyl sulphoxide (previously purged with argon for 2 hr at 20° C.) was deacetylated in the presence of 0.25M NaOH for 30 min and neutralised at pH 7.4 to a final concentration of 1 mM. Horseradish peroxidase (HRP) stock solution was prepared to 1 μM at pH 7.4. The reactions were carried out in PBS, pH 7.4 in a 96 well plate (total volume=250 μl/well). The reaction solutions contained Aβ 1-42 at concentrations in the range of 50 nM to 1 μM, copper-glycine chelate (Cu-Gly), was prepared by adding CuCl2 to glycine in the ratio of 1:6 and added to the Aβ in the proportion 2Cu-Gly: 1Aβ), reducing agents including dopamine (5 μM) or ascorbic acid, deacetylated DCF 100 μM, and HRP, 0.1 μM. […] The reaction mixture was incubated at 37 C for 60 min. […] H2O2 concentration may be established by comparing fluorescence with the H2O2 standards. Inhibition of AB H2O2 production was assayed by including a given concentration of test compound(s) in the test wells.

[2] = tested on: Neuronal cortical cells treated with Aβ1-42; assay: Assay for Aβ neurotoxicity and Aβ neuroprotection (Assay 3(c)); assay type: cell-based, mouse; conditions: 20 uM Aβ1-42, 4 days, MTS
Experimental: (§1) Media was then replaced with Neurobasal media (Invitrogen Life Technologies) and B27 supplements (Invitrogen Life Technologies). Cultures were maintained at 37° C. in 5% CO2. Prior to experimentation, the culture medium was replaced with Neurobasal media and B27 minus antioxidants (Invitrogen Life Technologies).
(c) Assay for Aβ Neurotoxicity and Aβ Neuroprotection
Neuronal cortical cells were cultured for five days as per Assay 2. On day six the neurobasal (NB) media (Invitrogen Life Technologies) and B27 supplement (Invitrogen Life Technologies) were replaced with NB media and B27 supplement (no antioxidants). On day six, test compounds were individually added to the neuronal cell cultures:
Aβ was initially dissolved in 20 mM NaOH to a concentration of 1 mM and sonicated for 5 minutes. The peptide was then diluted in H2O and 10×PBS to a final concentration of 200 uM Aβ in 1×PBS. The peptide was again sonicated for 5 minutes and then spun at 14000 rpm for 5 min and transferred to a fresh tube.
The test compounds were dissolved in 100% DMSO to a concentration of 2.5 mM (10 mM if excess compound was weighed out per vial—then diluted to 2.5 mM). […] Test compounds were not added directly to cells, instead they were added to a 48 well ‘Drug Plate’ as comprised below:
(§2) The Drug Plate was incubated at 37° C. for 15 mins. 200 ul of each well was added in triplicate to the corresponding cell plate. The cell plate was incubated at 37 C, for 4 days.
On the 4th day after treating the cells the assay is completed by adding MTS to the cells.

Neuronal cortical cells = assay: Assay for test compound cytoxicity, MTS (Assay 3(d)); assay type: cell-based, mouse; conditions: BL6J×129sv, mouse, 4 days
Experimental: as §1
Cell viability is determined using the MTS assay. Culture medium is […] replaced with fresh neurobasal medium plus B27 supplements minus antioxidants. 1/10th volume MTS solution (Cell Titre 96 Aqueous One, Promega Corporation) and incubated at 37° C., 2 hrs. 200 microliter aliquots are measured with a spectrophotometer at 560 nm.
(d) Assay for Test Compound Cytoxicity
Neuronal cortical cells were cultured for five days as per Assay 2 in NB media and B27 supplement.
On day six the test compounds were added to the neuronal cell cultures in NB media and B27 supplement minus antioxidants.
Test compounds were dissolved in 100% DMSO to a concentration of 2.5 mM (10 mM if excess compound was weighed out per vial—then diluted to 2.5 mM). […] Test compounds were not added directly to cells, instead they were added to a 48 well ‘Drug Plate’ as comprised below:
as §2
On completion of the assay, 1/10 volume MTS was added per well of plate (ie 25 ul/250 ul). The plates were incubated at 37 C for 2 hrs, and then absorbance was read at 560 nm.

[3] = tested on: Aβ in extract of tissue from post mortem human AD brain; assay: Human brain amyloid solubilisation assay (Assay 9, BAS); assay type: biochemical
Experimental: Assay 9. Human Brain Amyloid Solubilisation Assay
This assay was performed in order to assess the ability of a test compound to mobilise Aβ from the insoluble to the soluble phase of an extract of tissue from post mortem human AD brain.
Up to 0.5 g of plaque-bearing cortex without meninges was homogenized using a DIAX 900 homogenizer (Heudolph and Co, Kelheim, Germany) or other suitable device for three 30-second periods at full speed in 2 ml of ice-cold phosphate-buffered saline, pH 7.4. To obtain the phosphate-buffered saline-extractable fraction, the homogenate was centrifuged at 100,000×g for 30 min and the supernatant removed. Alternatively, the tissue was freeze dried then pulverised to form a powder which was then weighed out into aliquots for extraction as above. Supernatant, either freeze-dried and resuspended or in unconcentrated form, was dissolved in 200 μl of Tris-Tricine sodium dodecyl sulfate (SDS) sample buffer pH 8.3 containing 8% SDS, 10% 2-mercaptoethanol. Aliquots (10 μl) were then boiled for 10 minutes before SDS-polyacrylamide gel electrophoresis. The insoluble fraction of the cortical samples was obtained by resuspending the initial pelleted sample in 1 ml of phosphate-buffered saline. A 50-μl aliquot of this suspension was then boiled in […] of sample buffer as above.
Tris-Tricine polyacrylamide gel electrophoresis was performed by loading appropriately diluted samples on to 10% to 20% gradient gels (Novex, San Diego, Calif.) followed by transfer on to 0.2-μm nitrocellulose membrane (Bio-Rad, Hercules, Calif.). Aβ was detected by using monoclonal antibody W02, which detects residues 5 through 8, […] (or another suitable antibody) in conjunction with horseradish peroxidase-conjugated rabbit anti-mouse IgG (Dako, Denmark), and visualized by using enhanced chemiluminescence (eg ECL; Amersham Life Science, Buckinghamshire, UK). Each gel included three lanes containing 0.5, 1, and 2 ng of synthetic Aβ40 (Keck Laboratory, Yale University, New Haven, Conn.) as reference standards.
Blot films were scanned by using a suitable imaging system such as the UVP gel documentation system, and densitometry performed using suitable software, eg UVP Labworks. The dynamic range of the film/scanner was determined by using a step tablet (No. 911ST600, Kodak, Rochester N.Y.), a calibrated film exposed by the manufacturer to provided steps of known increasing intensity. The quantifiable range of signal intensity for densitometric analysis of the mono- and dimeric Aβ bands was based on the comparison with a curve obtained by scanning and densitometry of the step tablet.
All samples were analysed at least twice, and gel loadings and dilutions were adjusted to fit within the quantifiable region of the standard curve. […] The insoluble Aβ being comprised of the pelletable fraction derived from the insoluble amyloid plaque from the above cortical samples and the soluble fraction comprising monomeric and/or oligomeric soluble Aβ.

[4] = solubilising plaques relative to PBS

T1 sequence (P05067 672-713 limits assumed): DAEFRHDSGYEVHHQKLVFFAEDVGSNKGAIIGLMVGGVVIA

Structure (SMILES)	IC50 [1]	% inhibition Abeta toxicity [2]	Test Compound Cytoxicity 1 uM (Neuronal cortical cells)	Test Compound Cytoxicity 10 uM (Neuronal cortical cells)	Viable 10 uM (Neuronal cortical cells)	BAS Score [3, 4]	BAS Score [3]
Oc1cccc2ccc(CN(CCc3c[nH]cn3)Cc3ccccn3)nc12 [compound 1009]	320 nM	16%	94	32			
Oc1c(Br)cc(Br)c2cccnc12 [compound 47]	900 nM	13%	88	86	93.59		
Oc1c(Cl)cc(-c2cccnc2)c2cccnc12 [compound 1057, 7-chloro-5-(pyridin-3-yl)-quinolin-8-ol]	430 nM	4%	101.84	95.02	95.02		
CN(C)c1ccc(-c2cc(Cl)c3cccnc3c2O)cc1 [compound 851]	< 700 nM					−	
Oc1c(-c2ccccc2C(F)(F)F)cc(-c2ccccc2C(F)(F)F)c2cccnc12 [compound 974]	600 nM					+	
COc1ccccc1-c1cc(-c2ccccc2OC)c2cccnc2c1O [compound 862]						+	
Nc1ccc(O)c2ncccc12 [compound 44]					71.05		+
Oc1cccc2ccc(CN(Cc3ccccn3)Cc3c[nH]cn3)nc12 [compound 1011]	320 nM	21%	89	31			
Oc1c(-c2ccccc2F)cc(-c2ccccc2F)c2cccnc12 [compound 975]	3200 nM					+	
O=C(NCc1ccccn1)c1cc(O)c2cccc(O)c2n1 [compound 955]	260 nM and 180 nM				100	−	
Oc1cccc2ccc(CNCc3ccccn3)nc12 [compound 991]						+	
O=S(=O)(O)c1cc(I)c(O)c2ncccc12 [compound 43]	600 nM				91.02	−	
NCCNC(=O)c1ccc2cccc(O)c2n1 [compound 957]					95.86	+	
Oc1cccc2ccc(CNCCc3c[nH]cn3)nc12 [compound 989]	420 nM				43.24	−	
COc1ccccc1-c1cc(I)c(O)c2ncccc12 [compound 863]					34.97	+	
O=C(CNC(=O)c1cc(O)c2cccc(O)c2n1)NCc1ccccn1 [compound 988]					93.27	−	
Cc1ccccc1-c1cc(-c2ccccc2C)c2cccnc2c1O [compound 852]					33.52	+	
O=C(Nc1ccccc1O)c1ccc2cccc(O)c2n1 [compound 951]	1430 nM				91.86	−	
Oc1c(I)cc(I)c2cccnc12 [compound 46]	1000 nM				91.97	−	
N=C(N)NCc1ccc2cccc(O)c2n1 [compound 966]	4300 nM				88.61	+	
O=C(NCCc1cnc[nH]1)c1cc(O)c2cccc(O)c2n1 [compound 954]	180 nM				104.9	−	
O=C(NCc1ccccn1)c1ccc2cccc(O)c2n1 [compound 949]	900 nM				84.82	+	
Cc1ccccc1-c1cc(I)c(O)c2ncccc12 [compound 861]	910 nM				37.83	+	
CC(=O)c1ccc2cccc(O)c2n1 [compound 976]	3700 nM					−	
Oc1ccc(Cl)c2cccnc12 [compound 48]	800 nM				85	−	
Oc1c(-c2ccccc2)cc(-c2ccccc2)c2cccnc12 [compound 809]	< 4000 nM and 1800 nM				26.31	+	
Oc1c(I)cc(-c2ccccc2C(F)(F)F)c2cccnc12 [compound 860]						+	
Cc1cccc(-c2cc(Cl)c3cccnc3c2O)c1 [compound 859]						+	
